Laboratory results reported in patent publication US8501811B2, “TASPASE1 inhibitors and their uses” (Washington University, priority 2010, dated 2013).
Entries after “also recorded” stand apart in the source; their conditions may differ. Residues, ends and D or L forms follow the SMILES beside them. *: point of attachment. DNP = 2,4-dinitrophenyl quenching group; X1 = CS(=O)(=O)/C=C/[C@H](CC(=O)O)N*; MCA = fluorogenic coumarin group

How the values were obtained:
Taspase1 = molecular target: T1, Taspase1 (Homo sapiens, UniProt Q9H6P5); experiment: FRET-based Taspase1 proteolytic reporter (FRPR) assay; format: biochemical; settings: for EC50: Maybridge library screen, dose-response
T1 sequence (Q9H6P5 1-233 limits assumed): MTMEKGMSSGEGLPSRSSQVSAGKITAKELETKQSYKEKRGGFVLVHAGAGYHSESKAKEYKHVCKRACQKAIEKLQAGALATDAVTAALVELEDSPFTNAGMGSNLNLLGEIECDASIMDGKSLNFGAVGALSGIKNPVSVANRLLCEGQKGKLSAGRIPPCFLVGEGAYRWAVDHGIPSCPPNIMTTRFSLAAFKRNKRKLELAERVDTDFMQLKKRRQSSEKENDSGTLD

[1] = molecular target: T2, recombinant Taspase1 (rTaspase1) (Homo sapiens, UniProt Q9H6P5); experiment: Taspase1-MLL in vitro cleavage assay (IVTT 35S methionine labeled p75MLL reporter, SDS-PAGE, autoradiography); format: biochemical; settings: for IC50: rTaspase1 pretreated 30 minutes at room temperature, then p75MLL reporter 30 minutes at 30° C., read-out: IC50 of Taspase1 inhibition (p75MLL cleavage); for Inhibition of Taspase1-mediated p75MLL cleavage (in words): indicated concentrations, 30 minutes pretreatment; for Inhibition of Taspase1-mediated p75MLL cleavage at 1 mM: 1 mM (up to 1 mM); for Effect of increasing pretreatment time on Taspase1 inhibition: 5 μM, pre-incubation for increasing periods of time
T2 sequence (Q9H6P5 1-233 limits assumed): T1 sequence (Q9H6P5 1-233 limits assumed)

autotoxin = autotoxin (Homo sapiens, UniProt Q13822); settings: cited from earlier work
[2] = system: SV40-transformed mouse embryonic fibroblasts (MEFs); experiment: MTT assay of SV40-transformed MEFs, wild-type versus Taspase1-/-; format: cell-based; settings: 2 days, relative cell number
NCI60 cell lines = settings: NCI DTP database; cited from earlier work
[3] = molecular target: Recombinant Caspase8 (rCaspase8) (Homo sapiens, UniProt Q14790); experiment: Caspase8-BID in vitro cleavage assay (IVTT 35S methionine labeled p22Bid reporter); format: biochemical; settings: 1 mM, tertiary screen
Sequence of Recombinant Caspase8 (rCaspase8) (Q14790 217-374 limits assumed, species assumed): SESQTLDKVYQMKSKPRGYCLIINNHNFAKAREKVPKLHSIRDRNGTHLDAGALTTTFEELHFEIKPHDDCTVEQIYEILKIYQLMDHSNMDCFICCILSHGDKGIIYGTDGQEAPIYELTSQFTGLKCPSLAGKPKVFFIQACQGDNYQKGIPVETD

Cc1ccc(NC(=S)NNC(=O)Cn2nnc(-c3cccc(Cl)c3Cl)n2)cc1Cl [RJF 02020]
EC50 (Taspase1): 3.9 µM

Cc1ccc(-c2nc(NS(=O)(=O)c3cccc4nonc34)sc2C)cc1Cl [HTS 01888]
EC50 (Taspase1): 2.2 µM

CC[C@H](C)[C@H](NC(C)=O)C(=O)N[C@@H](CO)C(=O)N[C@@H](CCC(N)=O)C(=O)N[C@@H](CC(C)C)C(=O)N[C@H](/C=C/S(C)(=O)=O)CC(=O)O [ISQLD-vinyl sulfone] (Ac-ISQL-X1; N-terminus and C-terminus assumed)
IC50 [1]: 29.4 µM

O=C(NNC(=S)Nc1cccc(C(F)(F)F)c1)c1sc2ccccc2c1Cl [BTB 00807]
EC50 (Taspase1): 9.9 µM

O=C(CO/N=C/c1ccc(Cl)cc1Cl)NNCCC(=S)Nc1cc(Cl)ccc1Cl [CD 06082]
EC50 (Taspase1): 3.3 µM

MCA-KISQLDGVDD-DNP ({MCA}-KISQLDGVDD-{DNP}) [FRPR]
Km (Taspase1; rTaspase1 at room temperature, read-out: apparent KM of the reporter substrate): 9.06 ± 2.8 µM

CC[C@H](C)[C@H](NC(=O)[C@H](CCCCN)NC(C)=O)C(=O)N[C@@H](CO)C(=O)N[C@@H](CCC(N)=O)C(=O)N[C@@H](CC(C)C)C(=O)N[C@H](C=O)CC(=O)O [ISQLD-aldehyde] (Ac-KISQLD-aldehyde)
Inhibition of Taspase1-mediated p75MLL cleavage (in words) [1]: minimal activity

Cc1ccc(S(=O)(=O)NC(=O)Nc2nc(-c3ccc(C)c(Cl)c3)c(C)s2)cc1 [HTS 06900]
EC50 (Taspase1): 4 µM

arsenic acid
Inhibition of Taspase1-mediated p75MLL cleavage at 1 mM [1]: no inhibition

CC(C)C[C@H](NC(=O)[C@H](Cc1ccccc1)NC(=O)c1cnccn1)B(O)O [bortezomib]
Inhibition of Taspase1-mediated p75MLL cleavage (in words) [1]: no activity

S=C(NNC(=S)NC1CC2C=CC1C2)Nc1ccc(Br)c(Cl)c1 (centres unmarked) [CD 02506]
EC50 (Taspase1): 1.5 µM

CC(C)(C)c1cc(C(=O)NNC(=S)Nc2ccccc2)n(Cc2ccc(Cl)cc2Cl)n1 [SPB 08132]
EC50 (Taspase1): 5.9 µM

O=[As](O)(O)c1ccc(Cc2ccc([As](=O)(O)O)cc2)cc1 [NSC48300, [4-[(4-arsonophenyl)methyl]phenyl]arsonic acid]
Inhibition of autotoxin (autotoxin): inhibit autotoxin | Susceptibility of wild-type versus Taspase1-/- SV40-transformed MEFs [2]: more susceptible | Growth inhibition in the NCI60 screen (NCI60 cell lines): distinct pattern of growth inhibition | Ki (Taspase1; 100 nM rTaspase1, varying concentrations of FRPR, read-out: KI of Taspase1 inhibition): 4.22 ± 0.46 µM | Mode of Taspase1 inhibition (Taspase1; varying concentrations of FRPR and inhibitor): non-competitive inhibition | Inhibition of Caspase8-mediated p22Bid cleavage [3]: only targets Taspase1; also recorded: not Caspase8 | Effect of increasing pretreatment time on Taspase1 inhibition [1]: did not enhance the inhibition | Effect of increasing pretreatment time on Taspase1 inhibition ([1]; listed as TASPIN-NSC48300): did not exhibit enhanced inhibition | Inhibition of Taspase1-mediated p75MLL cleavage at 10 μM ([1]; 10 μM): completely inhibited | Inhibition of Taspase1-mediated p75MLL cleavage at 1 mM [1]: inhibited Taspase1 | IC50 [1]: ~7.5 µM
